Assay results reported in PubChem BioAssay (NCI).
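In this assay, cells in 96-well plates receive the compound at five concentrations for 48 hours. Endpoints are linearly interpolated between the surrounding concentrations. GI50 is the concentration that inhibits growth by half. Definition used: TGI = concentration required for complete inhibition of growth.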

How the values were obtained:
Assay in all cases: NCI-60 cell line screen, 48 h
ACHN renal = test system: ACHN renal
OVCAR-5 ovarian = test system: OVCAR-5 ovarian
SF-295 CNS = test system: SF-295 CNS
NCI-H522 lung = test system: NCI-H522 lung
A498 renal = test system: A498 renal
HCC-2998 colon = test system: HCC-2998 colon
A549 NSCLC = test system: A549 NSCLC
OVCAR-4 ovarian = test system: OVCAR-4 ovarian
CCRF-CEM leukemia = test system: CCRF-CEM leukemia
DU-145 prostate = test system: DU-145 prostate
CAKI-1 renal = test system: CAKI-1 renal
TK-10 renal = test system: TK-10 renal
PC-3 prostate = test system: PC-3 prostate
SK-OV-3 ovarian = test system: SK-OV-3 ovarian
LOX IMVI melanoma = test system: LOX IMVI melanoma
M14 melanoma = test system: M14 melanoma
UO-31 renal = test system: UO-31 renal
SK-MEL-2 melanoma = test system: SK-MEL-2 melanoma
SW-620 colon = test system: SW-620 colon
SNB-75 CNS = test system: SNB-75 CNS
KM12 colon = test system: KM12 colon
786-0 renal = test system: 786-0 renal
MALME-3M melanoma = test system: MALME-3M melanoma
NCI-H226 lung = test system: NCI-H226 lung
HT29 colon = test system: HT29 colon
OVCAR-3 ovarian = test system: OVCAR-3 ovarian
SN12C renal = test system: SN12C renal
HS 578T breast = test system: HS 578T breast
OVCAR-8 ovarian = test system: OVCAR-8 ovarian
MCF7 breast = test system: MCF7 breast
HCT-15 colon = test system: HCT-15 colon
RXF 393 renal = test system: RXF 393 renal
MOLT-4 leukemia = test system: MOLT-4 leukemia
HOP-62 NSCLC = test system: HOP-62 NSCLC
SK-MEL-28 melanoma = test system: SK-MEL-28 melanoma
U251 CNS = test system: U251 CNS
NCI-H460 lung = test system: NCI-H460 lung
COLO 205 colon = test system: COLO 205 colon
MDA-MB-435 = test system: MDA-MB-435
SF-539 CNS = test system: SF-539 CNS
HL-60(TB) leukemia = test system: HL-60(TB) leukemia
K-562 leukemia = test system: K-562 leukemia
NCI/ADR-RES ovarian = test system: NCI/ADR-RES ovarian
EKVX NSCLC = test system: EKVX NSCLC
RPMI-8226 leukemia = test system: RPMI-8226 leukemia
IGROV1 ovarian = test system: IGROV1 ovarian
MDA-MB-231 breast = test system: MDA-MB-231 breast
SNB-19 CNS = test system: SNB-19 CNS
MDA-MB-468 breast = test system: MDA-MB-468 breast
HCT-116 colon = test system: HCT-116 colon
UACC-62 melanoma = test system: UACC-62 melanoma
BT-549 breast = test system: BT-549 breast
HOP-92 NSCLC = test system: HOP-92 NSCLC
UACC-257 melanoma = test system: UACC-257 melanoma
SR leukemia = test system: SR leukemia
SK-MEL-5 melanoma = test system: SK-MEL-5 melanoma
SF-268 CNS = test system: SF-268 CNS
NCI-H23 lung = test system: NCI-H23 lung

COc1ccc2[nH]c(O)c(N=Nc3nc(-c4ccc(Br)cc4)cs3)c2c1
GI50 (ACHN renal): 3.18 µM
TGI (ACHN renal): 10.1 µM
GI50 (OVCAR-5 ovarian): 5.77 µM
TGI (OVCAR-5 ovarian): 33.8 µM
GI50 (SF-295 CNS): 11.3 µM
TGI (SF-295 CNS): 39.3 µM
GI50 (NCI-H522 lung): 2.5 µM
TGI (NCI-H522 lung): 39 µM
GI50 (A498 renal): 2.38 µM
TGI (A498 renal): 6.5 µM
GI50 (HCC-2998 colon): 4.25 µM
TGI (HCC-2998 colon): > 100 µM
GI50 (A549 NSCLC): 3.07 µM
TGI (A549 NSCLC): 12.9 µM
GI50 (OVCAR-4 ovarian): 1.73 µM
TGI (OVCAR-4 ovarian): 3.23 µM
GI50 (CCRF-CEM leukemia): 6.56 µM
TGI (CCRF-CEM leukemia): > 100 µM
GI50 (DU-145 prostate): 4.54 µM
TGI (DU-145 prostate): 32.6 µM
GI50 (CAKI-1 renal): 5.1 µM
TGI (CAKI-1 renal): 32.7 µM
GI50 (TK-10 renal): 14.7 µM
TGI (TK-10 renal): 89.9 µM
GI50 (PC-3 prostate): 5.22 µM
TGI (PC-3 prostate): 60.1 µM
GI50 (SK-OV-3 ovarian): 6.16 µM
TGI (SK-OV-3 ovarian): 50.3 µM
GI50 (LOX IMVI melanoma): 3.77 µM
TGI (LOX IMVI melanoma): 12.5 µM
GI50 (M14 melanoma): 2.81 µM
TGI (M14 melanoma): 10.3 µM
GI50 (UO-31 renal): 9.13 µM
TGI (UO-31 renal): 28.2 µM
GI50 (SK-MEL-2 melanoma): 2.6 µM
TGI (SK-MEL-2 melanoma): 8.11 µM
GI50 (SW-620 colon): 3.06 µM
TGI (SW-620 colon): > 100 µM
GI50 (SNB-75 CNS): 3 µM
TGI (SNB-75 CNS): 21.3 µM
GI50 (KM12 colon): 6.23 µM
TGI (KM12 colon): > 100 µM
GI50 (786-0 renal): 1.65 µM
TGI (786-0 renal): 3.22 µM
GI50 (MALME-3M melanoma): 1.69 µM
TGI (MALME-3M melanoma): 3.2 µM
GI50 (NCI-H226 lung): 4.44 µM
TGI (NCI-H226 lung): 19.5 µM
GI50 (HT29 colon): 7.18 µM
TGI (HT29 colon): > 100 µM
GI50 (OVCAR-3 ovarian): 2.91 µM
TGI (OVCAR-3 ovarian): 10.4 µM
GI50 (SN12C renal): 3.16 µM
TGI (SN12C renal): 11.1 µM
GI50 (HS 578T breast): 7.34 µM
TGI (HS 578T breast): > 100 µM
GI50 (OVCAR-8 ovarian): 3.07 µM
TGI (OVCAR-8 ovarian): 9.52 µM
GI50 (MCF7 breast): 2.98 µM
TGI (MCF7 breast): 79.8 µM
GI50 (HCT-15 colon): 4.43 µM
TGI (HCT-15 colon): 30.6 µM
GI50 (RXF 393 renal): 2.29 µM
TGI (RXF 393 renal): 5.07 µM
GI50 (MOLT-4 leukemia): 3.33 µM
TGI (MOLT-4 leukemia): > 100 µM
GI50 (HOP-62 NSCLC): 6.51 µM
TGI (HOP-62 NSCLC): 36 µM
GI50 (SK-MEL-28 melanoma): 2.01 µM
TGI (SK-MEL-28 melanoma): 4.19 µM
GI50 (U251 CNS): 2.96 µM
TGI (U251 CNS): 9.25 µM
GI50 (NCI-H460 lung): 2.48 µM
TGI (NCI-H460 lung): 6.14 µM
GI50 (COLO 205 colon): 5.6 µM
TGI (COLO 205 colon): > 100 µM
GI50 (MDA-MB-435): 6.64 µM
TGI (MDA-MB-435): > 100 µM
GI50 (SF-539 CNS): 1.92 µM
TGI (SF-539 CNS): 3.95 µM
GI50 (HL-60(TB) leukemia): 87.8 µM
TGI (HL-60(TB) leukemia): > 100 µM
GI50 (K-562 leukemia): 4.35 µM
TGI (K-562 leukemia): > 100 µM
GI50 (NCI/ADR-RES ovarian): 2.1 µM
TGI (NCI/ADR-RES ovarian): 4.58 µM
GI50 (EKVX NSCLC): 3.63 µM
TGI (EKVX NSCLC): 27.9 µM
GI50 (RPMI-8226 leukemia): 3.62 µM
TGI (RPMI-8226 leukemia): > 100 µM
GI50 (IGROV1 ovarian): 5.41 µM
TGI (IGROV1 ovarian): > 100 µM
GI50 (MDA-MB-231 breast): 5.35 µM
TGI (MDA-MB-231 breast): 20.7 µM
GI50 (SNB-19 CNS): 8.01 µM
TGI (SNB-19 CNS): 52.4 µM
GI50 (MDA-MB-468 breast): 2.17 µM
TGI (MDA-MB-468 breast): 5.81 µM
GI50 (HCT-116 colon): 2.35 µM
TGI (HCT-116 colon): 5.72 µM
GI50 (UACC-62 melanoma): 2.97 µM
TGI (UACC-62 melanoma): > 100 µM
GI50 (BT-549 breast): 7.26 µM
TGI (BT-549 breast): 36.6 µM
GI50 (HOP-92 NSCLC): 1.96 µM
TGI (HOP-92 NSCLC): 5.21 µM
GI50 (UACC-257 melanoma): 8.64 µM
TGI (UACC-257 melanoma): > 100 µM
GI50 (SR leukemia): 4.73 µM
TGI (SR leukemia): > 100 µM
GI50 (SK-MEL-5 melanoma): 4.72 µM
TGI (SK-MEL-5 melanoma): 30.9 µM
GI50 (SF-268 CNS): 6.49 µM
TGI (SF-268 CNS): 36.6 µM
GI50 (NCI-H23 lung): 3.51 µM
TGI (NCI-H23 lung): 14.2 µM
